Values after ≈ are worked out from the molar mass of the structure shown.
test system: SA 9218; test: MIC by standard agar dilution method; format: cell-based; details: Mueller Hinton agar, 10^4 to 10^5 cells per spot, incubated overnight at 35° C., lowest concentration that inhibits visible growth
Excerpt: The antibacterial agents of this invention have useful activity against a variety of organisms. The in vitro activity of compounds of this invention can be assessed by standard testing procedures such as the determination of minimum inhibitory concentration (MIC) by agar dilution as described in “Approved Standard. Methods for Dilution Antimicrobial Susceptibility Tests for Bacteria That Grow Aerobically”, 3rd. ed., published 1993 by the National Committee for Clinical Laboratory Standards, Villanova, Pa., USA. The in vitro MICs of test compounds were determined by a standard agar dilution method. A stock drug solution of each analog was prepared in the preferred solvent, usually DMSO:H2O (1:3). Serial 2-fold dilutions of each sample are made using 1.0 ml aliquots of sterile distilled water. To each 1.0 ml aliquot of drug was added 9 ml of molten Mueller Hinton agar medium. The drug-supplemented agar was mixed, poured into 15×100 mm petri dishes, and allowed to solidify and dry prior to inoculation. Vials of each of the test organisms are maintained frozen in the vapor phase of a liquid nitrogen freezer. Test cultures are grown overnight at 35° C. on the medium appropriate for the organism. Colonies are harvested with a sterile swab, and cell suspensions are prepared in Trypticase Soy broth (TSB) to equal the turbidity of a 0.5 McFarland standard. A 1:20 dilution of each suspension was made in TSB. The plates containing the drug supplemented agar are inoculated with a 0.001 ml drop of the cell suspension using a Steers replicator, yielding approximately 10^4 to 10^5 cells per spot. The plates are incubated overnight at 35° C. Following incubation the Minimum Inhibitory Concentration (MIC μg/ml), the lowest concentration of drug that inhibits visible growth of the organism, was read and recorded.

Question: For `COc1cc(OC)cc(C(=O)Nc2ccc(Br)cc2C(=O)O)c1`, which MIC is on record?
Answer: The MIC was 16 µg/mL (≈ 42.1 µM).

Question: With `Cc1cccc(C(=O)Nc2ccc(Br)cc2C(=O)O)c1` as the compound, how does the MIC read?
Answer: Its MIC is 64 µg/mL (≈ 192 µM).

Question: For `CCOc1ccc(C(=O)Nc2ccc(Br)cc2C(=O)O)cc1OCC`, which MIC is on record?
Answer: Its MIC is > 128 µg/mL.

Question: With `O=C(Nc1ccc(Br)cc1C(=O)O)c1ccc(F)cc1` as the compound, how does the MIC read?
Answer: The MIC was 64 µg/mL (≈ 189 µM).

Question: For `O=C(Nc1ccc(Br)cc1C(=O)O)c1cccc(C(F)(F)F)c1`, which MIC is on record?
Answer: The MIC was 8 µg/mL (≈ 20.6 µM).

Question: `CCN(CC)c1ccc(C(=O)Nc2ccc(Br)cc2C(=O)O)cc1` was tested. Which MIC did it give?
Answer: The MIC was 32 µg/mL (≈ 81.8 µM).

Question: With `N#Cc1ccc(C(=O)Nc2ccc(Br)cc2C(=O)O)cc1` as the compound, how does the MIC read?
Answer: Its MIC is 128 µg/mL (≈ 371 µM).

Question: Which MIC does the source give for `O=C(Nc1ccc(Br)cc1C(=O)O)c1ccc(-c2ccccc2)cc1` here?
Answer: Its MIC is 32 µg/mL (≈ 80.8 µM).

Question: `CN(C)c1ccc(C(=O)Nc2ccc(Br)cc2C(=O)O)cc1` was tested. Which MIC did it give?
Answer: Its MIC is 32 µg/mL (≈ 88.1 µM).

Question: How did the MIC turn out when `CCSc1ccc(C(=O)Nc2ccc(Br)cc2C(=O)O)cc1` was run?
Answer: Its MIC is 0.5 µg/mL (≈ 1.31 µM).

Question: `CCCCOc1ccc(C(=O)Nc2ccc(Br)cc2C(=O)O)cc1` was tested. Which MIC did it give?
Answer: The MIC was 8 µg/mL (≈ 20.4 µM).

Question: `O=C(Nc1ccc(Br)cc1C(=O)O)c1ccc(C(F)(F)F)cc1` was tested. Which MIC did it give?
Answer: The MIC was 32 µg/mL (≈ 82.4 µM).

Question: With `CSc1ccc(C(=O)Nc2ccc(Br)cc2C(=O)O)cc1` as the compound, how does the MIC read?
Answer: The MIC was 2 µg/mL (≈ 5.46 µM).

Question: Which MIC does the source give for `C=Cc1ccc(C(=O)Nc2ccc(Br)cc2C(=O)O)cc1` here?
Answer: The MIC was > 128 µg/mL.

Question: Which MIC does the source give for `COC(=O)c1ccc(C(=O)Nc2ccc(Br)cc2C(=O)O)cc1` here?
Answer: Its MIC is 32 µg/mL (≈ 84.6 µM).

Question: Which MIC does the source give for `O=C(O)c1cc(Br)ccc1NC(=O)c1ccc(F)c2ccccc12` here?
Answer: The MIC was 32 µg/mL (≈ 82.4 µM).

Question: `COc1cc(C(=O)Nc2ccc(Br)cc2C(=O)O)ccc1C` was tested. Which MIC did it give?
Answer: The MIC was > 128 µg/mL.

Question: Which MIC does the source give for `O=C(Nc1ccc(Br)cc1C(=O)O)c1ccc2c(c1)OCO2` here?
Answer: Its MIC is 16 µg/mL (≈ 43.9 µM).

Question: Which MIC does the source give for `O=C(O)c1cc(Br)ccc1NC(=O)c1cccc2ccccc12` here?
Answer: Its MIC is 32 µg/mL (≈ 86.4 µM).

Question: `O=C(Nc1ccc(Br)cc1C(=O)O)c1cccc([N+](=O)[O-])c1` was tested. Which MIC did it give?
Answer: Its MIC is 128 µg/mL (≈ 351 µM).

Question: Which MIC does the source give for `O=C(Nc1ccc(Br)cc1C(=O)O)c1ccc2ccccc2c1` here?
Answer: The MIC was 2 µg/mL (≈ 5.4 µM).

Question: `CS(=O)(=O)c1ccc(C(=O)Nc2ccc(Br)cc2C(=O)O)cc1` was tested. Which MIC did it give?
Answer: Its MIC is 64 µg/mL (≈ 161 µM).

Question: For `O=Cc1ccc(C(=O)Nc2ccc(Br)cc2C(=O)O)cc1`, which MIC is on record?
Answer: Its MIC is > 128 µg/mL.

Question: With `COC(=O)c1cc(C(=O)Nc2ccc(Br)cc2C(=O)O)cc([N+](=O)[O-])c1` as the compound, how does the MIC read?
Answer: Its MIC is 64 µg/mL (≈ 151 µM).

Question: With `COc1cc(C(=O)Nc2ccc(Br)cc2C(=O)O)ccc1[N+](=O)[O-]` as the compound, how does the MIC read?
Answer: Its MIC is 32 µg/mL (≈ 81 µM).

Question: With `O=C(Nc1ccc(Br)cc1C(=O)O)c1ccc(F)c(F)c1` as the compound, how does the MIC read?
Answer: Its MIC is 32 µg/mL (≈ 89.9 µM).

Question: Which MIC does the source give for `CSc1ccc(Cl)c(C(=O)Nc2ccc(Br)cc2C(=O)O)c1` here?
Answer: The MIC was > 128 µg/mL.

Question: With `COc1cc(C(=O)Nc2ccc(Br)cc2C(=O)O)c([N+](=O)[O-])cc1OC` as the compound, how does the MIC read?
Answer: Its MIC is > 128 µg/mL.

Question: With `CC#CCOc1ccc(C(=O)Nc2ccc(Br)cc2C(=O)O)cc1` as the compound, how does the MIC read?
Answer: Its MIC is 16 µg/mL (≈ 41.2 µM).

Question: How did the MIC turn out when `Cc1cc(C)n(COc2ccc(C(=O)Nc3ccc(Br)cc3C(=O)O)cc2)n1` was run?
Answer: The MIC was 64 µg/mL (≈ 144 µM).

Question: `CC(C)OCCOc1ccc(C(=O)Nc2ccc(Br)cc2C(=O)O)cc1` was tested. Which MIC did it give?
Answer: Its MIC is > 128 µg/mL.

Question: How did the MIC turn out when `COC(=O)c1ccc(COc2ccc(C(=O)Nc3ccc(Br)cc3C(=O)O)cc2)cc1` was run?
Answer: The MIC was > 128 µg/mL.

Question: `O=C(Nc1ccc(Br)cc1C(=O)O)c1ccc(OCCSc2nc3ccccc3s2)cc1` was tested. Which MIC did it give?
Answer: Its MIC is 64 µg/mL (≈ 121 µM).

Question: Which MIC does the source give for `O=C(Nc1ccc(Br)cc1C(=O)O)c1ccc(OCCc2ccccn2)cc1` here?
Answer: The MIC was 128 µg/mL (≈ 290 µM).

Question: How did the MIC turn out when `O=C(Nc1ccc(Br)cc1C(=O)O)c1ccc(OCCc2cccc([N+](=O)[O-])c2)cc1` was run?
Answer: The MIC was 64 µg/mL (≈ 132 µM).

Question: Which MIC does the source give for `O=C(Nc1ccc(Br)cc1C(=O)O)c1ccc(OC2CCOCC2)cc1` here?
Answer: The MIC was 128 µg/mL (≈ 305 µM).

Question: How did the MIC turn out when `CSc1ccc(C(=O)Nc2ccc(C#N)cc2C(=O)O)cc1` was run?
Answer: Its MIC is 0.5 µg/mL (≈ 1.6 µM).

Question: With `O=C(Nc1ccc(Br)cc1C(=O)O)c1ccc(OCCN2C(=O)c3ccccc3C2=O)cc1` as the compound, how does the MIC read?
Answer: The MIC was 64 µg/mL (≈ 126 µM).

Question: How did the MIC turn out when `COc1cc(OC)cc(C(=O)Nc2ccc(C#N)cc2C(=O)O)c1` was run?
Answer: The MIC was 8 µg/mL (≈ 24.5 µM).

Question: Which MIC does the source give for `CC(C)(C)CCOc1ccc(C(=O)Nc2ccc(Br)cc2C(=O)O)cc1` here?
Answer: Its MIC is 64 µg/mL (≈ 152 µM).

Question: With `N#Cc1ccc(NC(=O)c2ccc(F)cc2)c(C(=O)O)c1` as the compound, how does the MIC read?
Answer: Its MIC is 128 µg/mL (≈ 450 µM).

Question: Which MIC does the source give for `O=C(Nc1ccc(Br)cc1C(=O)O)c1ccc(OCCNc2ccccc2)cc1` here?
Answer: The MIC was 64 µg/mL (≈ 141 µM).

Question: `N#Cc1ccc(NC(=O)c2cccc3ccccc23)c(C(=O)O)c1` was tested. Which MIC did it give?
Answer: Its MIC is 16 µg/mL (≈ 50.6 µM).

Question: With `CCOC(=O)C1CCC(Oc2ccc(C(=O)Nc3ccc(Br)cc3C(=O)O)cc2)CC1` (centres unmarked) as the compound, how does the MIC read?
Answer: Its MIC is > 128 µg/mL.

Question: For `COCC1CCCN1S(=O)(=O)c1cccc(C(=O)Nc2ccc(C#N)cc2C(=O)O)c1` (centres unmarked), which MIC is on record?
Answer: The MIC was 64 µg/mL (≈ 144 µM).

Question: With `CC(C)(C)c1ccc(-c2ccc(C(=O)Nc3ccc(C#N)cc3C(=O)O)cc2)cc1` as the compound, how does the MIC read?
Answer: Its MIC is 32 µg/mL (≈ 80.3 µM).

Question: For `CC1CC(S(=O)(=O)c2cccc(C(=O)Nc3ccc(C#N)cc3C(=O)O)c2)CC(C)O1` (centres unmarked), which MIC is on record?
Answer: Its MIC is 16 µg/mL (≈ 36.2 µM).
